The text below walks through data of US10478492B2, “Modifications of therapeutic agents for enhanced delivery to target sites” (Partikula LLC, priority 2016, dated 2019).

pEC50, pIC50, pKi: −log10 of the molar value. Where two headings read alike, the source gives them in different places.

Data set [1] concerns the target monocarboxylate transporters (MCT). The conditions noted are these: competitive inhibitor of lactate transport in tumors; read-out: Ki as inhibitor of lactate transport; cited from earlier work.
The nature of data set [2]: Stability in cell culture media containing 10% FBS by HPLC. In kind it is in vitro ADME. Here is the method:
Stability of ADCA in cell culture media containing 10% FBS was examined by looking at the HPLC chromatograms and area under the peaks. For the study, […] solution of ADCA was prepared by mixing 10 μL of 100 mM DMSO stock solution with 1.99 mL of cell media. Turbidity was observed after mixing, however no precipitate was observed. The samples were then stored at 37° C., 150 μL aliquots were analyzed by HPLC (the sample was mixed before taking an aliquot, however no visible precipitate was observed even before mixing). Alanyl-DCA was detected at 205 nm with a retention time of 9.7 min on HPLC.
Stability of Mito-ADCA in cell culture media containing 10% FBS was monitored by examining the HPLC chromatograms and area under the peaks. Scheme below expected degradation products:
For this study, 500 μM solution of Mito-ADCA (MAD) was prepared by mixing 10 μL of 100 mM DMSO stock solution with 1.99 mL of cell culture media (RPMI 1640 medium, supplemented with 10% FBS, 1% Pen/strep). Turbidity was observed after mixing, however no precipitate was observed. The samples were then stored at 37° C., 150 μL aliquots were analyzed by HPLC (the sample was mixed before taking an aliquot, and no visible precipitate was observed even before mixing).
Using HPLC, MitoADCA (MAD), loss of one alanyl-DCA (MAD-ADCA), loss of three alanyl-DCA (i.e., TPP-Tris-OH) and the alanyl-DCA (ADCA) were tracked. MAD was detected and monitored at 268 nm with retention time of 18.08 min, Mito-A-DCA missing 1 alanyl DCA at 268 nm with retention time of 17.13 min, total amount of MAD and Mito-A-DCA missing 1 alanyl DCA at 268 nm, TPP-Tris-OH at 268 nm with retention time of 14.6 min, and alanyl DCA at 205 nm with retention time of 9.5 min. The MAD half-life in cell media at 500 μM was measured as ˜20 h. TPP-Tris-OH starts appearing in HPLC only after 10 h in media.

The target in data set [3] is PDHK2 (Homo sapiens, UniProt Q15119). The conditions noted are these: cited from earlier work.
The test system of data set [4] is PDH activity in primary rat hepatocytes. The conditions noted are these: read-out: EC50 for increase of PDH activity; cited from earlier work.
The subject of data set [5] is A549 cells. In words: Cytotoxicity in A549 cells. In kind it is cell-based. From the text:
(§1) Next the cytotoxicity ability of PDCA and PDCA-NPs were studied in A549 and HCT16 cells to evaluate the ability of these new formulations with respect to NaDCA.
(§2) Next the cytotoxicity ability of PalmMetformin and NPs were studied in A549 and HCT16 cells to evaluate the ability of these new formulations with respect to Meformin.

The test system of data set [6] is HCT116 cells. As to the kind of experiment: Cytotoxicity in HCT116 cells. In kind it is cell-based.
From the text: as §1, §2

The nature of data set [7]: Stability in 18% rat serum by HPLC. In kind it is in vitro ADME. Here is the method: (§3) In a further study, Mito-ADCA stability testing was carried out in rat serum. 0.5 mg/mL solutions 18% rat serum were prepared and analyzed by HPLC. Mito-ADCA was detected at 268 nm with a retention time of 18.08 min over time of 4500 min in 18% rat serum. […] After 2 d a peak of TPP-Tris-OH was observed. The amount of TPP-Tris-OH corresponded to 76% of the original.
(§4) Stability of TPP-bis-ADCA in rat serum and water was carried out using 500 μg/mL solution in 18% rat serum. The solution was analyzed by HPLC for two days.
(§5) Hydrolytic stability of TPP-ibDCA in serum, and in water was studied. A 500 μg/mL solution of TPP-ib-DCA in water, and in 18% rat serum was analyzed by HPLC using the method for Mito-ADCA/DCA detection described above. […] In water, hydrolysis of TPP-ib-DCA stops halfway likely due to the acidification of the solution.

Data set [8] in a line: Stability in water by HPLC. Type of data set: physicochemical. The conditions noted are these: for stability in water: 2 days. Here is the method: as §3, §4, §5
Where [9] appears, read: A549 cells, 24 + 48 h, read-out: IC50 (24 + 48 h).
The mark [10] stands for this setting: A549 cells, 72 h, read-out: IC50 (72 h).
The mark [11] stands for this setting: 500 μg/mL in 18% rat serum, two days.

For the molecule `N#CC(=Cc1ccc(O)cc1)C(=O)O` [ACCA, α-cyano-4-hydroxy cinnamic acid], the pKi in data set [1] was 3.30.

With `O=C(O)CCNC(=O)C(Cl)Cl` [ADCA, β-alanyl-DCA], in data set [2] (1.5 mM, cell culture media with 10% FBS, 37° C., five days), the “change in ADCA concentration (total area of absorbance peak)” value is recorded as “virtually no change in ADCA concentration over five days”.

For `CN(C)C(=O)c1ccc(S(=O)(=O)c2ccc(NC(=O)[C@@](C)(O)C(F)(F)F)c(Cl)c2)cc1` [AZD7545, 4-[3-chloro-4-[[(2R)-3,3,3-trifluoro-2-hydroxy-2-methylpropanoyl]amino]phenyl]sulfonyl-N,N-dimethylbenzamide], the pIC50 in data set [3] is 8.19. In data set [4], the pEC50 was 6.98.

As for `CN(C)C(=N)N=C(N)N` [Meformin, Metformin, reference compound], the pIC50 in data set [5] (Homo sapiens, A549 cells, 24 + 48 h, Table 4, read-out: IC50 (24 + 48 h)) is less than 3.30; in data set [5] (Homo sapiens, A549 cells, 72 h, Table 4, read-out: IC50 (72 h)), less than 3.30; in data set [5] (Homo sapiens, A549 cells, read-out: IC50 values), less than 3.30; in data set [6] (Homo sapiens, HCT-116, 24 + 48 h, Table 4, read-out: IC50 (24 + 48 h)), less than 3.30; in data set [6] (Homo sapiens, HCT-116, 72 h, Table 4, read-out: IC50 (72 h)), less than 3.30; in data set [6] (Homo sapiens, HCT-116, read-out: IC50 values) it was less than 3.30.

In the case of `O=C(CCCCC[P+](c1ccccc1)(c1ccccc1)c1ccccc1)NC(COC(=O)CCNC(=O)C(Cl)Cl)(COC(=O)CCNC(=O)C(Cl)Cl)COC(=O)CCNC(=O)C(Cl)Cl.[Br-]` [Mito-ADCA, TPP-Tris-β-alanino-DCA], the half-life at 500 μM in data set [2] (cell culture medium with 10% FBS (no cells), 500 μM, RPMI 1640 with 10% FBS, 37° C.) is roughly 20 h. For the same molecule, the “species released by hydrolysis” value in data set [2] (cell media with 10% FBS) and in data set [7] (18% rat serum) was “Alanyl-DCA is released as a result of hydrolysis instead of DCA” each time. For the same molecule, in data set [7] (0.5 mg/mL in 18% rat serum), the half-life at 0.5 mg/mL is roughly 7 h. For the same molecule, in data set [8], the stability in water result is listed as “stable in water for 2 days without signs of decomposition”.

Consider `O=C([O-])C(Cl)Cl.[Na+]` [NaDCA, reference compound], for which the negative-log IC50 (pIC50) was less than 1.70 in data set [5] (setting [9]); less than 1.70 in data set [5] (setting [10]); no more than 1.70 in data set [5] (cell line not stated in the sentence (A549 and HCT16 cells studied), read-out: IC50 value); less than 1.70 in data set [6] (24 + 48 h, read-out: IC50 (24 + 48 h)); less than 1.70 in data set [6] (72 h, read-out: IC50 (72 h)).

With `CCCCCCCCCCCCCCCC(=O)NC(COC(=O)CCNC(=O)C(Cl)Cl)(COC(=O)CCNC(=O)C(Cl)Cl)COC(=O)CCNC(=O)C(Cl)Cl` [PADCA, Palm-Tris-β-alanino-DCA], the pIC50 in data set [5] (Homo sapiens, A549 cells, free PADCA, read-out: IC50 value) was roughly 3.40.

Consider `CCCCCCCCCCCCCCCC(=O)NC(COC(=O)C(Cl)Cl)(COC(=O)C(Cl)Cl)COC(=O)C(Cl)Cl` [PDCA, Palmitic-Tris-DCA], for which the pIC50 in data set [5] (setting [9]) was 3.69; in data set [5] (setting [10]), 3.76; in data set [5] (cell line not stated in the sentence (values match A549 of Table 2), read-out: IC50 value), roughly 3.69.

In the case of `O=C(NCCCCC(NC(=O)C(Cl)Cl)C(=O)NCCCC[P+](c1ccccc1)(c1ccccc1)c1ccccc1)C(Cl)Cl` (stereo not shown) [TPP-bis-ADCA], the decomposition in serum in data set [7] (500 μg/mL in 18% rat serum, after 2 days) was found to be 2%. In data set [7] (setting [11]), the “detection of DCA” value is given as “no DCA was detected”; the stability in serum result is “stable in both serum and water”. For the same molecule, the stability in water result in data set [8] was “stable in both serum and water”.

`CC(C)(OC(=O)C(Cl)Cl)C(=O)NCCCC[P+](c1ccccc1)(c1ccccc1)c1ccccc1.[Br-]` [TPP-ib-DCA, (4-(2-(2,2-dichloroacetoxy)-2-methylpropanamido)butyl) triphenylphosphonium bromide]: in data set [7] (500 μg/mL in 18% rat serum), the “appearance of free DCA” value is “delayed relative to the disappearance of the ester” and the “hydrolysis in serum compared with MitoDCA” value is given as “slower than MitoDCA”. The hydrolysis in water entry in data set [8] (500 μg/mL in water) was “stops halfway”.

Broadly, the pKi is the negative decadic logarithm of the Ki, by convention in mol/L. The pIC50 is the negative decadic logarithm of the IC50, by convention in mol/L. In general, pEC50 refers to the negative decadic logarithm of the EC50, by convention in mol/L. By half-life is commonly meant how long it takes for the measured level to halve. Lower therefore signals fast loss.
